According to patent publication US4446325A, “1,4-Dihydropyridine compounds” (priority 1981, dated 1984):
Blank lines part the entries; values can stand above or below the compound they belong to.

Experiments:
coronary artery = experiment: Blood flow increasing activity in coronary artery of anesthetized dog (intravenous); type: in vivo; conditions: i.v.
Description: (§1) A dog was anesthetized with pentobarital sodium at a dose of 30 mg/kg (intravenous injection) and, under artificial respiration, the blood flow in the coronary, vertebral and femoral arteries was determined using an electromagnetic blood-flow meter. The blood pressure was also measured simultaneously. The test compound was dissolved in ethanol at a concentration of 1% by weight of the compound and then diluted to a volume of 10 times with a 80% aqueous solution of polyethylene glycol 400. The resulting solution was further diluted with a 0.9% physiological saline solution and administered intravenously into the femoral vein at a dose shown in Tables 1 and 2.

vertebral artery = experiment: Blood flow increasing activity in vertebral artery of anesthetized dog (intravenous); type: in vivo; conditions: i.v.
Description: as §1

femoral artery = experiment: Blood flow increasing activity in femoral artery of anesthetized dog (intravenous); type: in vivo; conditions: i.v.
Description: as §1

[1] = cited from earlier work
[2] = Stability to light (sun light, quartz dish, visual appearance); type: physicochemical; design: key to Change in appearance on light exposure: (-): No change
in vivo = conditions: mouse, oral, ddy male mice, mortality one week after administration
[3] = system: enucleated heart of guinea-pig; experiment: Effect on heart systole, enucleated heart of guinea-pig (Langendorf method)
Description: (§2) The effects of the compounds of this invention on the heat systole and the perfusion volume in the coronary artery in enucleated heart of guinea-pig were determined in accordance with the Langendorf method.

[4] = system: coronary artery in enucleated heart of guinea-pig; experiment: Effect on perfusion volume in coronary artery, enucleated heart of guinea-pig (Langendorf method)
Description: as §2

[5] = system: coronary, vertebral and femoral arteries; experiment: Blood flow increasing / vasodilating activity in coronary, vertebral and femoral arteries (overall statements); type: in vivo, dog; conditions: Table 2
Description: as §1

[6] = background statement; cited from earlier work
blood pressure = experiment: Blood pressure measured simultaneously with blood flow in anesthetized dog; type: in vivo; conditions: i.v.
Description: as §1

[7] = 3 mg/kg, Table 2 (separate test)
[8] = exposure for a total of 8 hours

Compound: COC(=O)C1=C(C)NC(C)=C(C(=O)OCC(C)=O)C1c1ccccc1[N+](=O)[O-] (stereo not drawn) [Compound B, Methyl 2-oxopropyl 2,6-dimethyl-4-(2-nitrophenyl)-1,4-dihydropyridine-3,5-dicarboxylate]
Duration of Activity, Coronary Artery (coronary artery; 1 mg/kg, Table 1): 10.0
Total Increase in Blood Flow, Coronary Artery (coronary artery; 1 mg/kg, Table 1): 37 mL
Duration of Activity, Coronary Artery (coronary artery; 3 mg/kg, Table 1): 35.0
Total Increase in Blood Flow, Coronary Artery (coronary artery; 3 mg/kg, Table 1): 392 mL
Duration of Activity, Vertebral Artery (vertebral artery; 1 mg/kg, Table 1): 7.5
Total Increase in Blood Flow, Vertebral Artery (vertebral artery; 1 mg/kg, Table 1): 29 mL
Duration of Activity, Vertebral Artery (vertebral artery; 3 mg/kg, Table 1): 35.5
Total Increase in Blood Flow, Vertebral Artery (vertebral artery; 3 mg/kg, Table 1): 309 mL
Duration of Activity, Femoral Artery (femoral artery; 1 mg/kg, Table 1): 4.0
Total Increase in Blood Flow, Femoral Artery (femoral artery; 1 mg/kg, Table 1): 20 mL
Duration of Activity, Femoral Artery (femoral artery; 3 mg/kg, Table 1): 58.5
Total Increase in Blood Flow, Femoral Artery (femoral artery; 3 mg/kg, Table 1): 774 mL

Compound: CCOC(=O)C1=C(C)NC(C)=C(C(=O)OC2CCCCC2)C1c1cccc([N+](=O)[O-])c1 (stereo not drawn) [cyclohexyl ethyl 2,6-dimethyl-4-(3-nitrophenyl)-1,4-dihydropyridine-3,5-dicarboxylate]
activities, reported ([1]; German OLS Nos. 2,117,571 and 2,117,573): weak activities

Compound: COC(=O)C1=C(C)NC(C)=C(C(=O)OCC(C)C)C1c1ccccc1[N+](=O)[O-] (stereo not drawn) [Compound F, Isobutyl methyl 2,6-dimethyl-4-(2-nitrophenyl)-1,4-dicarboxylate, reference compound]
Duration of Activity, Coronary Artery (coronary artery; [7]): 31
Total Increase in Blood Flow, Coronary Artery (coronary artery; [7]): 353 mL
Duration of Activity, Coronary Artery (coronary artery; 10 mg/kg, Table 2): 55
Total Increase in Blood Flow, Coronary Artery (coronary artery; 10 mg/kg, Table 2): 863 mL
Duration of Activity, Vertebral Artery (vertebral artery; [7]): 34
Total Increase in Blood Flow, Vertebral Artery (vertebral artery; [7]): 347 mL
color changes on light exposure ([2]; 5 minutes' exposure): slight color changes
changes on light exposure ([2]; after more than 5 minutes' exposure ("thereafter")): marked changes
Duration of Activity, Femoral Artery (femoral artery; [7]): 27
Total Increase in Blood Flow, Femoral Artery (femoral artery; [7]): 365 mL
Duration of Activity, Femoral Artery (femoral artery; 10 mg/kg, Table 2): 58
Total Increase in Blood Flow, Femoral Artery (femoral artery; 10 mg/kg, Table 2): 874 mL
LD50 at 168 h (in vivo): 465 mg/kg

Compound: CCCOC(=O)C1=C(C)NC(C)=C(C(=O)OCC2CC2)C1c1cccc([N+](=O)[O-])c1 (stereo not drawn) [Compound E, Cyclopropylmethyl propyl 2,6-dimethyl-4-(3-nitrophenyl)-1,4-dihydropyridine-3,5-dicarboxylate]
Duration of Activity, Coronary Artery (coronary artery; [7]): 22
Total Increase in Blood Flow, Coronary Artery (coronary artery; [7]): 148 mL
Duration of Activity, Vertebral Artery (vertebral artery; [7]): 19
Total Increase in Blood Flow, Vertebral Artery (vertebral artery; [7]): 262 mL
Change in appearance on light exposure ([2]; 5 min. sun light): (-)
Change in appearance on light exposure ([2]; 1 hour sun light): (-)
Change in appearance on light exposure ([2]; 2 hours sun light): (-)
Change in appearance on light exposure ([2]; 3 hours sun light): (-)
Change in appearance on light exposure ([2]; 8 hours sun light): (-)
changes on light exposure [2, 8]: did not show any changes
Duration of Activity, Femoral Artery (femoral artery; [7]): 20
Total Increase in Blood Flow, Femoral Artery (femoral artery; [7]): 285 mL
LD50 at 168 h (in vivo): 2000 mg/kg

Compound: CCOC(=O)C1=C(C)NC(C)=C(C(=O)OCC2CC2)C1c1cccc([N+](=O)[O-])c1 (stereo not drawn) [Compound D, Cyclopropylmethyl ethyl 2,6-dimethyl-4-(3-nitrophenyl)-1,4-dihydropyridine-3,5-dicarboxylate]
Duration of Activity, Coronary Artery (coronary artery; [7]): 32
Total Increase in Blood Flow, Coronary Artery (coronary artery; [7]): 308 mL
Duration of Activity, Vertebral Artery (vertebral artery; [7]): 17
Total Increase in Blood Flow, Vertebral Artery (vertebral artery; [7]): 212 mL
Change in appearance on light exposure ([2]; 5 min. sun light): (-)
Change in appearance on light exposure ([2]; 1 hour sun light): (-)
Change in appearance on light exposure ([2]; 2 hours sun light): (-)
Change in appearance on light exposure ([2]; 3 hours sun light): (-)
Change in appearance on light exposure ([2]; 8 hours sun light): (-)
changes on light exposure [2, 8]: did not show any changes
Duration of Activity, Femoral Artery (femoral artery; [7]): 16
Total Increase in Blood Flow, Femoral Artery (femoral artery; [7]): 173 mL
LD50 at 168 h (in vivo): 2000 mg/kg

Change in appearance on light exposure ([2]; 5 min. sun light): (-)
Change in appearance on light exposure ([2]; 1 hour sun light): (-)
Change in appearance on light exposure ([2]; 2 hours sun light): (-)
Change in appearance on light exposure ([2]; 3 hours sun light): (-)
changes on light exposure [2, 8]: did not show any changes
Compound: COC(=O)C1=C(C)NC(C)=C(C(=O)OCC2(C)OCCO2)C1c1cccc([N+](=O)[O-])c1 (stereo not drawn) [Compound A, Methyl 2,2-ethylenedioxypropyl 2,6-dimethyl-4-(3-nitrophenyl)-1,4-dihydropyridine-3,5-dicarboxylate]
Duration of Activity, Coronary Artery (coronary artery; 1 mg/kg, Table 1): 5.5
Total Increase in Blood Flow, Coronary Artery (coronary artery; 1 mg/kg, Table 1): 22 mL
Duration of Activity, Coronary Artery (coronary artery; 3 mg/kg, Table 1): 17.5
Total Increase in Blood Flow, Coronary Artery (coronary artery; 3 mg/kg, Table 1): 164 mL
Effects on Heart Systole: Duration of Effect ([3]; dose 1 × 10^-6 g): 4.6 min
Effects on Heart Systole: Duration of Effect ([3]; dose 1 × 10^-7 g): 1.3 min
Duration of Activity, Vertebral Artery (vertebral artery; 1 mg/kg, Table 1): 11.7
Total Increase in Blood Flow, Vertebral Artery (vertebral artery; 1 mg/kg, Table 1): 64 mL
Duration of Activity, Vertebral Artery (vertebral artery; 3 mg/kg, Table 1): 27.3
Total Increase in Blood Flow, Vertebral Artery (vertebral artery; 3 mg/kg, Table 1): 288 mL
Effects on Coronary Artery: Duration of Effect ([4]; dose 1 × 10^-6 g): 34.6 min
Effects on Coronary Artery: Total Perfusion Volume ([4]; dose 1 × 10^-6 g): 737.8 drops
Effects on Coronary Artery: Duration of Effect ([4]; dose 1 × 10^-7 g): 15.6 min
Effects on Coronary Artery: Total Perfusion Volume ([4]; dose 1 × 10^-7 g): 165.0 drops
Duration of Activity, Femoral Artery (femoral artery; 1 mg/kg, Table 1): 9.0
Total Increase in Blood Flow, Femoral Artery (femoral artery; 1 mg/kg, Table 1): 104 mL
Duration of Activity, Femoral Artery (femoral artery; 3 mg/kg, Table 1): 19.3
Total Increase in Blood Flow, Femoral Artery (femoral artery; 3 mg/kg, Table 1): 316 mL

Compound: COC(=O)C1=C(C)NC(C)=C(C(=O)OCC2CC2)C1c1cccc([N+](=O)[O-])c1 (stereo not drawn) [Compound C, Cyclopropylmethyl methyl 2,6-dimethyl-4-(3-nitrophenyl)-1,4-dihydropyridine-3,5-dicarboxylate]
Duration of Activity, Coronary Artery (coronary artery; [7]): 49
Total Increase in Blood Flow, Coronary Artery (coronary artery; [7]): 580 mL
Duration of Activity, Coronary Artery (coronary artery; 10 mg/kg, Table 2): 66
Total Increase in Blood Flow, Coronary Artery (coronary artery; 10 mg/kg, Table 2): 2772 mL
Duration of Activity, Vertebral Artery (vertebral artery; [7]): 37
Total Increase in Blood Flow, Vertebral Artery (vertebral artery; [7]): 463 mL
Duration of Activity, Vertebral Artery (vertebral artery; 10 mg/kg, Table 2): 78
Total Increase in Blood Flow, Vertebral Artery (vertebral artery; 10 mg/kg, Table 2): 1691 mL
Change in appearance on light exposure ([2]; 5 min. sun light): (-)
Change in appearance on light exposure ([2]; 1 hour sun light): (-)
Change in appearance on light exposure ([2]; 2 hours sun light): (-)
Change in appearance on light exposure ([2]; 3 hours sun light): (-)
Change in appearance on light exposure ([2]; 8 hours sun light): (-)
changes on light exposure [2, 8]: did not show any changes
Duration of Activity, Femoral Artery (femoral artery; [7]): 26
Total Increase in Blood Flow, Femoral Artery (femoral artery; [7]): 367 mL
Duration of Activity, Femoral Artery (femoral artery; 10 mg/kg, Table 2): 60
Total Increase in Blood Flow, Femoral Artery (femoral artery; 10 mg/kg, Table 2): 811 mL
duration of vasodilation effect compared with Compound F [5]: significantly higher
vasodilation effect compared with Compound F [5]: significantly higher
LD50 at 168 h (in vivo): 1450 mg/kg

Compound: COC(=O)C1=C(C)NC(C)=C(C(=O)OC)C1c1ccccc1[N+](=O)[O-] [Compound H, Dimethyl 2,6-dimethyl-4-(2-nitrophenyl)-1,4-dihydropyridine-3,5-dicarboxylate, reference compound]
Duration of Activity, Coronary Artery (coronary artery; 1 mg/kg, Table 1): 3.9
Total Increase in Blood Flow, Coronary Artery (coronary artery; 1 mg/kg, Table 1): 30 mL
Duration of Activity, Coronary Artery (coronary artery; 3 mg/kg, Table 1): 9.3
Total Increase in Blood Flow, Coronary Artery (coronary artery; 3 mg/kg, Table 1): 107 mL
Duration of Activity, Coronary Artery (coronary artery; [7]): 11
Total Increase in Blood Flow, Coronary Artery (coronary artery; [7]): 146 mL
Duration of Activity, Coronary Artery (coronary artery; 10 mg/kg, Table 2): 40
Total Increase in Blood Flow, Coronary Artery (coronary artery; 10 mg/kg, Table 2): 536 mL
Effects on Heart Systole: Duration of Effect ([3]; dose 1 × 10^-6 g): 14.5 min
Effects on Heart Systole: Duration of Effect ([3]; dose 1 × 10^-7 g): 2.9 min
Duration of Activity, Vertebral Artery (vertebral artery; 1 mg/kg, Table 1): 8.0
Total Increase in Blood Flow, Vertebral Artery (vertebral artery; 1 mg/kg, Table 1): 66 mL
Duration of Activity, Vertebral Artery (vertebral artery; 3 mg/kg, Table 1): 16.0
Total Increase in Blood Flow, Vertebral Artery (vertebral artery; 3 mg/kg, Table 1): 190 mL
Duration of Activity, Vertebral Artery (vertebral artery; [7]): 15
Total Increase in Blood Flow, Vertebral Artery (vertebral artery; [7]): 131 mL
Duration of Activity, Vertebral Artery (vertebral artery; 10 mg/kg, Table 2): 46
Total Increase in Blood Flow, Vertebral Artery (vertebral artery; 10 mg/kg, Table 2): 640 mL
Effects on Coronary Artery: Duration of Effect ([4]; dose 1 × 10^-6 g): 21.3 min
Effects on Coronary Artery: Total Perfusion Volume ([4]; dose 1 × 10^-6 g): 192.8 drops
Effects on Coronary Artery: Duration of Effect ([4]; dose 1 × 10^-7 g): 17.2 min
Effects on Coronary Artery: Total Perfusion Volume ([4]; dose 1 × 10^-7 g): 91.2 drops
Duration of Activity, Femoral Artery (femoral artery; 1 mg/kg, Table 1): 6.0
Total Increase in Blood Flow, Femoral Artery (femoral artery; 1 mg/kg, Table 1): 34 mL
Duration of Activity, Femoral Artery (femoral artery; 3 mg/kg, Table 1): 21.5
Total Increase in Blood Flow, Femoral Artery (femoral artery; 3 mg/kg, Table 1): 618 mL
Duration of Activity, Femoral Artery (femoral artery; [7]): 12
Total Increase in Blood Flow, Femoral Artery (femoral artery; [7]): 119 mL
Duration of Activity, Femoral Artery (femoral artery; 10 mg/kg, Table 2): 54
Total Increase in Blood Flow, Femoral Artery (femoral artery; 10 mg/kg, Table 2): 825 mL
side-effects [6]: still unsatisfactory
blood pressure lowering activity (blood pressure): found to have a blood pressure lowering activity
duration of vasodilating activity ([1]; background statement): still unsatisfactory
